“Also recorded” adds a separate entry of the source.
Columns and labels:
HMLER CD24^low cells = assay: Fluorescence microscopy of ferritin subcellular localization; format: cell-based, human; settings: 6 h
[1] = tested on: U2OS, HMLER CD24^low, and iCSCL-10A2 cells; assay: Lysosomal ROS in cells; format: cell-based; settings: all cell lines
[2] = tested on: ALDH+ iCSCL-10A2 cell subpopulation; assay: Flow cytometry of ALDH+ CSC subpopulation in vitro; format: cell-based; settings: 0.5 μM, 48 h
Procedure: FIG. 13. Sal and AM5 effect on an ALDH+CSC cell population in vitro. Flow cytometry measurement of the effect of 0.5 μM Sal and AM5 against ALDH+ iCSCL-10A2 cell subpopulation after treated for 48 h. DEAB is the diethylaminobenzaldehyde ALDH inhibitor.

primary breast cells = assay: Toxicity against primary breast cells; format: cell-based
[3] = tested on: patient-derived xenografts (PDX 1 and 2); format: in vivo, NOD/SCID mice; settings: intra-peritoneal; for ratio of residual ALDH+ cells / tumor growth: 4 weeks
Excerpt: Patient derived xenografts (PDXs). PDXs were established as previously described in Charafe-Jauffret et al., Cancer Res. 73, 7290-7300 (2013) from tissue samples collected prospectively at the Institut Paoli-Calmettes (IPC). Samples of human origin and associated data were obtained from the IPC/CRCM Tumor Bank that operates under authorization #AC-2007-33 granted by the French Ministry of Higher Education and Research. Before scientific use of samples and data, patients were appropriately informed and asked to consent in writing, in compliance with French and European regulations. The project was approved by the IPC Institutional Review Board. Cells from 2 different patient-derived xenografts (PDX 1 and 2) were transplanted orthotopically into fat pads of 4-week-old female non-obese diabetic/severe combined immunodeficient (NOD/SCID) mice (NOD.CB17-Prkdcscid/J, Charles River France) after mechanical treatment and enzymatic digestion using collagenase/hyaluronidase (StemCell Technologies) to generate single-cell suspension suitable for implantation in vivo. PDXs were primarily established as previously described in Caraft-Jauffret et al., and evaluated for ALDEFLUOR-positive CSCs. We injected single cancer cells into fat pads of NOD/SCID mice and monitored tumor growth. When tumor size reached approximately 150 mm^3, Sal and AM5 treatments were performed as indicated above for FIGS. 14 and 15. Tumor growth was compared with that of docetaxel and placebo-treated controls. After 4 weeks of treatment, the animals were sacrificed and the proportion of ALDEFLUOR-positive CSCs was measured in each residual tumor. All animal studies were approved by the French Ministry of Higher Education and Research (authorization number D130554) and ethical committee (number 14), of Aix-Marseille Université. No randomization was used and experimenters were blinded to drug treatments and tissue analyses.
Aldefluor assay. The analysis was processed on single-cell suspension from the PDXs obtained as described above. The ALDEFLUOR Kit (Stemcell™ Technologies) was used to isolate the population with high aldehyde dehydrogenase enzymatic activity using an LSR2 cytometer (Becton Dickinson Biosciences), as previously described in Charafe-Jauffret et al. To eliminate cells of mouse origin from the PDXs, we used staining with an anti-H2Kd antibody (BD Biosciences, 1:200, 20 min on ice) followed by staining with a secondary antibody labeled with phycoerythrin (PE; Jackson Laboratories, 1:250, 20 min on ice).

BT474 = assay: Sensibility to AM5; format: cell-based, human
Procedure: (§1) Cell viability assay. Cell viability assay was carried out by plating 1000 cells/well in 96-well plates. Cells were treated as indicated for 72 h. CellTiter-Blue® Reagent (G8081, Promega) was added after 72 h treatment and cells were incubated for 1 h before recording fluorescence intensities (Excitation, 560/20 nm; Emission, 590/10 nm) using a Perkin Elmer Wallac 1420 Victor2 Microplate Reader.

BT549 = assay: Sensibility to AM5; format: cell-based, human; settings: BT549, CSTN
Procedure: as §1

HBL100 = assay: Sensibility to AM5; format: cell-based, human; settings: HBL100, Non-tumoral
Procedure: as §1

HMLER CD24^high = assay: Sensibility to AM5; format: cell-based, human
Procedure: as §1

MCF-7 = assay: Sensibility to AM5; format: cell-based, human; settings: MCF-7, H+
Procedure: as §1

MDA-MB-134 = assay: Sensibility to AM5; format: cell-based, human
Procedure: as §1

MDA-MB-231 = assay: Sensibility to AM5; format: cell-based, human; settings: MDA-MB-231, CSTN
Procedure: as §1

MDA-MB-361 = assay: Sensibility to AM5; format: cell-based, human
Procedure: as §1

MDA-MD-157 = assay: Sensibility to AM5; format: cell-based, human; settings: MDA-MD-157, CSTN
Procedure: as §1

T47D = assay: Sensibility to AM5; format: cell-based, human; settings: H+
Procedure: as §1

Zr75.1 = assay: Sensibility to AM5; format: cell-based, human; settings: Zr75.1, H+
Procedure: as §1

SW480 = assay: Sensibility to AM5; format: cell-based; settings: SW480, Colon
Procedure: as §1

SW620 = assay: Sensibility to AM5; format: cell-based; settings: SW620, Colon
Procedure: as §1

RhoNox-1 reduction assay = settings: in the presence of iron (II)
Procedure: RhoNox-1 reduction assay. Experiments were carried in 96-well plate dishes. Reagent stock solutions were freshly prepared using Milli-Q water. 50 μL of solutions of Sal (800 μM), DFO (800 μM) and FeSO4 (80 μM) were mixed prior to addition of 50 μL of RhoNox-1 (40 μM) and completed with the appropriate volume of water to reach a final volume of 200 μL per well. Measurements were performed 30 min after addition of RhoNox-1 to the mix and were recorded using the PARADIGM™ Microplate Detection Platform (ex. 492 nm; em. 580 nm).

For C#CCN[C@@H]1C=C[C@]2(O[C@H]([C@@H](CC)C(=O)[C@@H](C)[C@@H](O)[C@H](C)C3O[C@@H](C(CC)C(=O)O)CC[C@@H]3C)[C@@H](C)C[C@H]2C)O[C@@]12CC[C@@](C)([C@H]1CC[C@](O)(CC)[C@H](C)O1)O2 (stereo partly shown) [AM5, Sal-Propargylamine], which “subcellular localization of ferritin” value (HMLER CD24^low cells) is on record?
Its value is “re-localization of ferritin to the lysosomal compartment”.

And the “lysosomal ROS” value [1]?
Its value is “significant increase in lysosomal ROS”.

And the “effect against ALDH+ subpopulation” value [2]?
The value was “selectively targeted the ALDH+ subpopulation; also recorded: more effectively than Sal”.

And the “toxicity against primary breast cells” value (primary breast cells)?
The value was “little toxicity”.

What about the “toxicity at effective doses” value [3] of the same molecule?
The value was “without detectable toxicity”.

And the “ratio of residual ALDH+ cells” value [3]?
The value was “reduced ratio of ALDH+ cells”.

What about the tumor growth [3] of the same molecule?
The tumor growth was “reduce tumor growth”.

What about the “Sensibility to AM5” value (BT474) of the same molecule?
The value was “Second”.

And the “Sensibility to AM5” value (BT549)?
Its value is “Resistant”.

And the “Sensibility to AM5” value (HBL100)?
Its value is “First”.

And the “Sensibility to AM5” value (HMLER CD24^high)?
Its value is “First”.

And the “Sensibility to AM5” value (MCF-7)?
Its value is “First”.

What about the “Sensibility to AM5” value (MDA-MB-134) of the same molecule?
Its value is “Second”.

What about the “Sensibility to AM5” value (MDA-MB-231) of the same molecule?
The value was “Second”.

And the “Sensibility to AM5” value (MDA-MB-361)?
The value was “Second”.

And the “Sensibility to AM5” value (MDA-MD-157)?
Its value is “Second”.

What about the “Sensibility to AM5” value (T47D) of the same molecule?
The value was “Resistant”.

What about the “Sensibility to AM5” value (Zr75.1) of the same molecule?
The value was “First”.

And the “Sensibility to AM5” value (SW480)?
Its value is “Third”.

What about the “Sensibility to AM5” value (SW620) of the same molecule?
The value was “Third”.

Which results are given for CC[C@@H](C(=O)[C@@H](C)[C@@H](O)[C@H](C)[C@@H]1O[C@@H]([C@@H](CC)C(=O)O)CC[C@@H]1C)[C@H]1O[C@]2(C=C[C@@H](O)[C@]3(CC[C@@](C)([C@H]4CC[C@](O)(CC)[C@H](C)O4)O3)O2)[C@H](C)C[C@@H]1C [Sal, salinomycin, reference compound]?
effect on iron reactivity (fluorogenic reduction of RhoNox-1) (RhoNox-1 reduction assay): without altering its reactivity; lysosomal ROS [1]: significant increase in lysosomal ROS; toxicity at effective doses [3]: without detectable toxicity; ratio of residual ALDH+ cells [3]: reduced ratio of ALDH+ cells; tumor growth [3]: reduce tumor growth
